In ChEMBL document CHEMBL4007434, “Indazole-Based Covalent Inhibitors To Target Drug-Resistant Epidermal Growth Factor Receptor” (J Med Chem, 2017):
Active and inactive are the calls of the source. No cut-off for these calls is given here.

Key:
[1] = target: T1, Epidermal growth factor receptor (Homo sapiens, UniProt P00533); assay type: ADME
[2] = target: T2, Epidermal growth factor receptor (Homo sapiens, UniProt P00533, L858R)
[3] = target: T3, Epidermal growth factor receptor (Homo sapiens, UniProt P00533, L858R/T790M)
[4] = target: T1, Epidermal growth factor receptor; experiment: Inhibition of wild-type EGFR in human A431 cells assessed as reduction in cell viability after 96 hrs by CellTiterGlo assay; assay type: ADME, cell-based
[5] = Inhibition of KRAS mutant in human A431 cells assessed as reduction in cell viability after 96 hrs by CellTiterGlo assay; assay type: cell-based; settings: A-431, 96 h
[6] = Ratio of IC50 for wild-type human N-terminal GST-tagged EGFR cytoplasmic domain (669 to 1210 end amino acid residues) expressed in baculovirus expression system to IC50 for human N-terminal GST-tagged EGFR L858R/T790M double mutant cytoplasmic domain (669 to 1210 end amino acid residues) expressed in baculovirus expression system
[7] = tested on: Epidermal growth factor receptor (Homo sapiens), P00533 [T790M]; experiment: Binding affinity to EGFR T790M mutant (unknown origin) assessed as covalent adduct formation at 100 uM after 1 hr by ESI-MS analysis
[8] = target: T1, Epidermal growth factor receptor; experiment: Ratio of Kinact to Ki for reversible inhibition of wild-type human N-terminal GST-tagged EGFR cytoplasmic domain (669 to 1210 end amino acid residues) expressed in baculovirus expression system
[9] = tested on: Epidermal growth factor receptor (Homo sapiens), P00533 [L858R,T790M,C797S]; experiment: Inhibition of EGFR L858R/T790M/C797S triple mutant (unknown origin) by HTRF assay
Liver [10] = experiment: Stability in human liver microsomes at 3 uM up to 50 mins by LCMS analysis; assay type: ADME, microsome
Liver [11] = experiment: Stability in mouse liver microsomes at 3 uM up to 50 mins by LCMS analysis; assay type: ADME, microsome
[12] = Stability in human plasma assessed as compound remaining at 5 uM after 1 hr by LCMS analysis; assay type: ADME, cell-free; settings: read-out: Stability
[13] = Stability in mouse plasma assessed as compound remaining at 5 uM after 1 hr by LCMS analysis; assay type: ADME, cell-free; settings: read-out: Stability
[14] = target: T1, Epidermal growth factor receptor; experiment: Reversible inhibition of wild-type human N-terminal GST-tagged EGFR cytoplasmic domain (669 to 1210 end amino acid residues) expressed in baculovirus expression system using TK peptide substrate preincubated for 2 to 90 mins followed by 6-fold dilution
[15] = target: T2, Epidermal growth factor receptor; experiment: (§1) Reversible inhibition of human N-terminal GST-tagged EGFR L858R mutant cytoplasmic domain (669 to 1210 end amino acid residues) expressed in baculovirus expression system using TK peptide substrate preincubated for 2 to 90 mins followed by 6-fold dilution
[16] = target: T3, Epidermal growth factor receptor; experiment: Reversible inhibition of human N-terminal GST-tagged EGFR L858R/T790M double mutant cytoplasmic domain (669 to 1210 end amino acid residues) expressed in baculovirus expression system using TK peptide substrate preincubated for 2 to 90 mins followed by 6-fold dilution
[17] = target: T1, Epidermal growth factor receptor; experiment: Reversible inhibition of wild-type human N-terminal GST-tagged EGFR cytoplasmic domain (669 to 1210 end amino acid residues) expressed in baculovirus expression system using TK peptide substrate assessed as inactivation constant preincubated for 2 to 90 mins followed by 6-fold dilution
[18] = target: T3, Epidermal growth factor receptor; experiment: (§2) Inhibition of EGF-induced EGFR L858R/T790M double mutant phosphorylation in human NCI-H1975 cells pre-incubated for 1 hr followed by EGF stimulation for 30 mins by Western blot analysis; assay type: cell-based
[19] = target: T3, Epidermal growth factor receptor; experiment: Inhibition of EGFR L858R/T790M double mutant in human NCI-H1975 cells assessed as reduction in EGF-induced Akt phosphorylation at S473 pre-incubated for 1 hr followed by EGF stimulation for 30 mins by Western blot analysis; assay type: cell-based
[20] = target: T1, Epidermal growth factor receptor; experiment: Inhibition of EGF-induced wild-type EGFR phosphorylation in human A431 cells pre-incubated for 1 hr followed by EGF stimulation for 30 mins by Western blot analysis; assay type: cell-based
[21] = target: T1, Epidermal growth factor receptor; experiment: Inhibition of wild-type EGFR in human A431 cells assessed as reduction in EGF-induced Akt phosphorylation at S473 pre-incubated for 1 hr followed by EGF stimulation for 30 mins by Western blot analysis; assay type: cell-based
[22] = tested on: Epidermal growth factor receptor (Homo sapiens), P00533 [L858R]
[23] = tested on: Epidermal growth factor receptor (Homo sapiens), P00533 [L858R,T790M]
[24] = tested on: Epidermal growth factor receptor (Homo sapiens), P00533 [L858R]; experiment: as §1
[25] = Inhibition of KRAS mutant in human H358 cells assessed as reduction in cell viability after 96 hrs by CellTiterGlo assay; assay type: cell-based; settings: NCI-H358, 96 h
[26] = tested on: Epidermal growth factor receptor (Homo sapiens), P00533 [L858R,T790M]; experiment: as §2; assay type: cell-based
[27] = tested on: Epidermal growth factor receptor (Homo sapiens), P00533 [L858R,T790M]; experiment: Inhibition of EGFR L858R/T790M double mutant in human NCI-H1975 cells assessed as reduction in EGF-induced Akt phosphorylation at S473 at 0.1 to 10 uM pre-incubated for 1 hr followed by EGF stimulation for 30 mins by Western blot analysis; assay type: cell-based
[28] = target: T1, Epidermal growth factor receptor; experiment: Inhibition of EGF-induced wild-type EGFR phosphorylation in human A431 cells at 10 uM pre-incubated for 1 hr followed by EGF stimulation for 30 mins by Western blot analysis; assay type: cell-based; settings: 0.5 h
[29] = Ratio of EC50 for wild-type EGFR in human A431 cells to EC50 for EGFR delE746_A750 mutant in human HCC827 cells
[30] = Ratio of EC50 for wild-type EGFR in human A431 cells to EC50 for EGFR L858R/T790M double mutant in human NCI-H1975 cells

Row | SMILES | IC50 [1] [nM] | IC50 [2] [nM] | IC50 [3] [nM] | EC50 [4] [nM] | also measured
1 | C=CC(=O)Nc1cc(Nc2n[nH]c3ccccc23)ccc1N(C)CCN(C)C | > 10000 | > 10000 | 2630 | 5970 | 
2 | C=CC(=O)Nc1cc(Nc2n[nH]c3cc(-c4ccc(N(C)C)cc4)ccc23)c(OC)cc1N(C)CCN(C)C | 387 | 80 | 72 | 1410 | 
3 | C=CC(=O)Nc1cc(Nc2n[nH]c3cc(-c4cncc5ccccc45)ccc23)c(OC)cc1N(C)CCN(C)C | 2.8 | 1.1 | 6 | 2820 | EC50 [5]: 659 nM
4 | CCC(=O)Nc1cc(Nc2n[nH]c3ccccc23)ccc1N(C)CCN(C)C | > 10000 | 8470 | 9730 | > 30000 | 
5 | C=CC(=O)Nc1cc(Nc2n[nH]c3cc(-c4cccc(N(C)C)c4)ccc23)c(OC)cc1N(C)CCN(C)C | 48 | 10 | 22 | 3470 | 
6 | C=CC(=O)Nc1cc(Nc2n[nH]c3ccc(-c4ccc5ccccc5c4)cc23)c(OC)cc1N(C)CCN(C)C | 8.1 | 2.2 | 1.1 | 1770 | Ratio IC50 [6]: 8; Activity [7]: Active; kinact/KI [8]: 20000 M⁻¹ s⁻¹; inhibition [9]: inactive; Stability (Liver [10]): Stable; Stability (Liver [11]): Stable; remaining at 1 h, 5 µM [12]: > 75%; remaining at 1 h, 5 µM [13]: > 90%; Ki [14]: 147 nM; Ki [15]: 105 nM; Ki [16]: 28 nM; kinact [17]: 0.003 s⁻¹; EC50 [18]: 1000 to 10000 nM; EC50 [19]: 1000 to 10000 nM; EC50 [20]: 1000 to 10000 nM; EC50 [21]: 1000 to 10000 nM; Kinact [22]: 0.14 min⁻¹; Kinact [23]: 0.5 min⁻¹
7 | CCC(=O)Nc1cc(Nc2n[nH]c3ccccc23)c(OC)cc1N(C)CCN(C)C | > 10000 | > 10000 | > 10000 | > 30000 | 
8 | C=CC(=O)Nc1cc(Nc2n[nH]c3cc(-c4cccc(F)c4)ccc23)c(OC)cc1N(C)CCN(C)C | 5 | 1.6 | 5 | 2280 | 
9 | C=CC(=O)Nc1cc(Nc2n[nH]c3cc(-c4cccc(C(F)(F)F)c4)ccc23)c(OC)cc1N(C)CCN(C)C | 16 | 4.5 | 38 | 3540 | 
10 | C=CC(=O)Nc1cc(Nc2n[nH]c3cc(-c4ccc(F)cc4)ccc23)c(OC)cc1N(C)CCN(C)C | 26 | 8.5 | 10 | 2170 | 
11 | C=CC(=O)Nc1cc(Nc2n[nH]c3cc(-c4ccc5ccccc5c4)ccc23)c(OC)cc1N(C)CCN(C)C | 312 | 25 | 85 | 1650 | 
12 | C=CC(=O)Nc1cc(Nc2n[nH]c3ccccc23)c(OC)cc1N(C)CCN(C)C | 9270 | 3350 | 462 | 10400 | 
13 | C=CC(=O)Nc1cc(Nc2n[nH]c3cc(-c4ccncc4)ccc23)c(OC)cc1N(C)CCN(C)C | 30 | 14 | 5 | 3940 | Activity [7]: Active; inhibition [9]: inactive; Stability (Liver [10]): Stable; Stability (Liver [11]): Stable; remaining at 1 h, 5 µM [12]: > 75%; remaining at 1 h, 5 µM [13]: > 90%; inhibition [24]: Active
14 | C=CC(=O)Nc1cc(Nc2n[nH]c3ccc(-c4cccc5ccccc45)cc23)c(OC)cc1N(C)CCN(C)C | 33 | 12 | 2.7 | 2780 | 
15 | C=CC(=O)Nc1cc(Nc2n[nH]c3cc(-c4cn(C)c5ccccc45)ccc23)c(OC)cc1N(C)CCN(C)C | 9.3 | 1.5 | 4.8 | 2210 | EC50 [5]: 2100 nM; EC50 [25]: 2600 nM; Activity [7]: Active; kinact/KI [8]: 20000 M⁻¹ s⁻¹; inhibition [9]: inactive; Stability (Liver [10]): Stable; Stability (Liver [11]): Stable; remaining at 1 h, 5 µM [12]: > 75%; remaining at 1 h, 5 µM [13]: > 90%; Ki [14]: 236 nM; Ki [15]: 57 nM; Ki [16]: 149 nM; kinact [17]: 0.00467 s⁻¹; inhibition [26]: Dose-dependent effect; EC50 [18]: 100 to 1000 nM; inhibition [27]: Active; inhibition (INH) [28]: Active; Kinact [22]: 0.14 min⁻¹; Kinact [23]: 0.37 min⁻¹
16 | C=CC(=O)Nc1cc(Nc2n[nH]c3ccc(-c4ccc(F)cc4)cc23)c(OC)cc1N(C)CCN(C)C | 6.8 | 2 | < 1 | 2070 | Ratio EC50 [29]: 3 - 4; Activity [7]: Active; inhibition [9]: inactive; Stability (Liver [10]): Stable; Stability (Liver [11]): Stable; remaining at 1 h, 5 µM [12]: > 75%; remaining at 1 h, 5 µM [13]: > 90%; inhibition [24]: Active; Ratio EC50 [30]: 3 - 4; inhibition [26]: Dose-dependent effect; EC50 [18]: 100 to 1000 nM; inhibition [27]: Active; inhibition (INH) [28]: Active
17 | C=CC(=O)Nc1cc(Nc2n[nH]c3cc(-c4cccnc4)ccc23)c(OC)cc1N(C)CCN(C)C | 97 | 29 | 15 | 5670 | 
